Reference: patent US20150148377A1, “Quinoline Derivatives” (NOVARTIS AG, priority 2011, published 2015)

Tests used:
[1] = target: T1, PI3K alpha (Homo sapiens, UniProt P42336); test: Enzymatic PI3K alpha isoform inhibition (lipid kinase activity, Kinase-Glo); type: biochemical; conditions: enzymatic assay
T1 construct: His tag (C); made in house; host or cells: baculovirus; Tn5 (Trichoplusia ni) or TiniPro insect cells
Protocol: The kinase reaction is performed in a final volume of 50 μl per well of a half area COSTAR, 96 well plate. The final concentrations of ATP and phosphatidyl inositol in the assay are 5 μM and 6 μg/mL, respectively. The reaction is started by the addition of PI3 kinase, e.g. PI3 kinase δ.
(§1) In a more preferred assay, the kinase reaction is performed in a final volume of 10 μl per well of a low volume non-binding CORNING, 384 well black plate (Cat. No. #3676). The final concentrations of ATP and phosphatidyl inositol (PI) in the assay are 1 μM and 10 μg/mL, respectively. The reaction is started by the addition of ATP.
(§2) The components of the assay are added per well as follows:
(§3) 50 nl test compounds in 90% DMSO per well, in columns 1-20, 8 concentrations (1/3 and 1/3.33 serial dilution step) in single. • Low control: 50 nl of 90% DMSO in half the wells of columns 23-24 (0.45% in final). • High control: 50 nl of reference compound (e.g. compound of Example 7 in WO 2006/122806) in the other half of columns 23-24 (2.5 μM in final). • Standard: 50 nl of reference compound as just mentioned diluted as the test compounds in columns 21-22. • 20 mL ‘buffer’ are prepared per assay: • 200 μl of 1M TRIS HCl pH7.5 (10 mM in final) • 60 μl of 1M MgCl2 (3 mM in final) • 500 μl of 2M NaCl (50 mM in final) • 100 μl of 10% CHAPS (0.05% in final) • 200 μl of 100 mM DTT (1 mM in final) • 18.94 mL of nanopure water • 10 mL ‘PI’ are prepared per assay: • 200 μl of 1 mg/mL 1-alpha-Phosphatidylinositol (Liver Bovine, Avanti Polar Lipids Cat. No. 840042C MW=909.12) prepared in 3% OctylGlucoside (10 μg/mL in final) • 9.8 mL of ‘buffer’ • 10 mL ‘ATP’ are prepared per assay: • 6.7 μl of 3 mM stock of ATP giving a final concentration of 1 μM per well • 10 mL of ‘buffer’ • 2.5 mL of each PI3K construct are prepared per assay in ‘PI’ with the following final concentration: • 10 nM PI3K alfa EMV B1075 • 25 nM beta EMV BV949 • 10 nM delta EMV BV1060 • 150 nM gamma EMV BV950 • 5 μl of ‘PI/PI3K’ are added per well. • 5 μl ‘ATP’ are added per well to start the reaction. • The plates are then incubated at room temperature for 60 minutes (alfa, beta, delta) or 120 minutes (gamma). • The reaction is terminated by the addition of 10 μl Kinase-Glo (Promega Cat. No. #6714). • The assay plates are read after 10 minutes in Synergy 2 reader (BioTek, Vermont USA) with an integration time of 100 milliseconds and sensitivity set to 191. • Output: The High control is around 60'000 counts and the Low control is 30'000 or lower • This luminescence assay gives a useful Z′ ratio between 0.4 and 0.7
(§4) IC50 is determined by a four parameter curve fitting routine that comes along with “excel fit”. A four parameter logistic equation is used to calculate IC50 values (IDBS XLfit) of the percentage inhibition of each compound at 8 concentrations (usually 10, 3.0, 1.0, 0.3, 0.1, 0.030, 0.010 and 0.003 μM). Alternatively, IC50 values are calculated using idbsXLfit model 204, which is a 4 parameter logistic model.
(§5) Yet alternatively, for an ATP depletion assay, compounds of the formula I to be tested are dissolved in DMSO and directly distributed into a white 384-well plate at 0.5 μl per well. To start the reaction, 10 μl of 10 nM PI3 kinase and 5 μg/mL 1-alpha-phosphatidylinositol (PI) are added into each well followed by 10 μl of 2 μM ATP. The reaction is performed until approx 50% of the ATP is depleted, and then stopped by the addition of 20 μl of Kinase-Glo solution (Promega Corp., Madison, Wis., USA). The stopped reaction is incubated for 5 minutes and the remaining ATP is then detected via luminescence. IC50 values are then determined.

[2] = target: T2, PI3K delta (Homo sapiens, UniProt O00329); test: Enzymatic PI3K delta isoform inhibition (lipid kinase activity, Kinase-Glo); type: biochemical; conditions: enzymatic assay
T2 construct: for the full-length p110-d subunit are generated and fused by overlapping PCR; His tag (C); made in house; host or cells: baculovirus; Tn5 (Trichoplusia ni) or TiniPro insect cells
T2 sequence (O00329 with tags, fused parts or gaps limits assumed): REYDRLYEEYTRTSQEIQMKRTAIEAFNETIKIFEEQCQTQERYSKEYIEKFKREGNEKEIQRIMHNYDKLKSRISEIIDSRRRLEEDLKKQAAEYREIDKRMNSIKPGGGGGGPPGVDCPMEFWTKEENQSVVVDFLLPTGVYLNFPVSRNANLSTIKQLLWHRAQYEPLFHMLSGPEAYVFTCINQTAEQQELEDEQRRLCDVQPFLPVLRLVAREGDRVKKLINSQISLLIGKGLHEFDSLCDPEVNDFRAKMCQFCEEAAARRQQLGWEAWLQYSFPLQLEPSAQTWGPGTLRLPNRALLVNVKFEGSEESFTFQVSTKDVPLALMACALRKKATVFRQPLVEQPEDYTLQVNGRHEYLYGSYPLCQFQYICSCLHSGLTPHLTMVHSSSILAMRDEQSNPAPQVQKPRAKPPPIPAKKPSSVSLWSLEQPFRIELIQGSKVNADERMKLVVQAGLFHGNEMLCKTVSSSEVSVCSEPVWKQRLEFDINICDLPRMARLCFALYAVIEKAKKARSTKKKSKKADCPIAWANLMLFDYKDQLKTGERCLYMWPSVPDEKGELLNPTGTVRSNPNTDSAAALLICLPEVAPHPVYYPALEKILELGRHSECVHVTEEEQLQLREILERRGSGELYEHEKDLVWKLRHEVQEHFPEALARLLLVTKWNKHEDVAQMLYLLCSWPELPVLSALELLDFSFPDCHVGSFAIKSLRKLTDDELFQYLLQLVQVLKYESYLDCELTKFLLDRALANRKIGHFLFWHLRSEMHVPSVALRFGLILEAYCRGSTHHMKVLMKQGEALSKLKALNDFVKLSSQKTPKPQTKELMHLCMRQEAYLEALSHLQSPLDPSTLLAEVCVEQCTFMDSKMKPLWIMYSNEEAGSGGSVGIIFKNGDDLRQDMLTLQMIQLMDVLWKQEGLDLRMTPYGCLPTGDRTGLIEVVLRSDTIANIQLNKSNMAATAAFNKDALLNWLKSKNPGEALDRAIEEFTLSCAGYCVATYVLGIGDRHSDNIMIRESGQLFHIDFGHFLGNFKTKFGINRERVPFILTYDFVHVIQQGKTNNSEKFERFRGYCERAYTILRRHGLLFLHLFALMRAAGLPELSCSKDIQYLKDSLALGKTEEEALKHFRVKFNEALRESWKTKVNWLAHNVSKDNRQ
Protocol: as §1, §2, §3, §4, §5

T1 sequence (P42336 with tags, fused parts or gaps limits assumed): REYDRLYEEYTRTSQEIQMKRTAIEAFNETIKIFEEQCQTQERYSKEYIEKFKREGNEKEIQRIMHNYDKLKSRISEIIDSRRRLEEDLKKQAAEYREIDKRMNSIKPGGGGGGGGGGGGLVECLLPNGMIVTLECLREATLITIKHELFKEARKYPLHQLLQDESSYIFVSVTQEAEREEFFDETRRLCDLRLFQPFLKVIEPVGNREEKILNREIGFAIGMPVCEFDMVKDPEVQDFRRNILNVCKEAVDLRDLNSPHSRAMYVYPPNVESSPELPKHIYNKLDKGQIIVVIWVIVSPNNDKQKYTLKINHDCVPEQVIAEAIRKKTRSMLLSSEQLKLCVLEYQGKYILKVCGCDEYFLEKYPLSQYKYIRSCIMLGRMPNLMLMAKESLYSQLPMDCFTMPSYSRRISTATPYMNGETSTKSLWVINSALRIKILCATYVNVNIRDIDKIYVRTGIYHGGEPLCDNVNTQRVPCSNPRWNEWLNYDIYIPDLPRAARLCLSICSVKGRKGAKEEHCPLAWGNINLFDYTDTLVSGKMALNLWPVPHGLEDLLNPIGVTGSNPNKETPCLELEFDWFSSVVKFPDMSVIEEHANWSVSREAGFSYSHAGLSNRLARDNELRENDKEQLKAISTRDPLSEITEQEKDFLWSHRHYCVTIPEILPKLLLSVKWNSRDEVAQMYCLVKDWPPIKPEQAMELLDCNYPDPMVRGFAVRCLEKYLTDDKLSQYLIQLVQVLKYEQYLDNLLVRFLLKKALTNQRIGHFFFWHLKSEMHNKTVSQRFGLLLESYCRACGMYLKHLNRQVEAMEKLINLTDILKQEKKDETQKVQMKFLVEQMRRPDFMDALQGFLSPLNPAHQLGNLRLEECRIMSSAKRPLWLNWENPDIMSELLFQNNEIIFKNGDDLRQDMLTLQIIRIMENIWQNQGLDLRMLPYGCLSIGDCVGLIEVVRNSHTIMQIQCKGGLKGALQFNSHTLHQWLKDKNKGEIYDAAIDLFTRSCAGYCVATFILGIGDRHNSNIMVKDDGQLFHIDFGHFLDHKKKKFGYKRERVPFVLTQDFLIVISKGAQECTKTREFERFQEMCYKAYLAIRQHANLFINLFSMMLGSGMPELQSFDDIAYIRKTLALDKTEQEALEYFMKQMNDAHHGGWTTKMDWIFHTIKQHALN

Row | Structure (SMILES) | IC50 [1] [nM] | IC50 [2] [nM]
1 | CCC(=O)N1CC[C@H](Oc2ccc3nccc(-c4cnc(OC)c(C)c4)c3c2)C1 [Example A2, 1-{(S)-3-[4-(6-Methoxy-5-methyl-pyridin-3-yl)-quinolin-6-yloxy]-pyrrolidin-1-yl}-propan-1-one] | 264 | < 3
2 | COc1ncc(-c2ccnc3ccc(O[C@H]4CCN(C(=O)C5CCOCC5)C4)cc23)cc1C#N [Example A3, 2-Methoxy-5-{6-[(S)-1-(tetrahydro-pyran-4-carbonyl)-pyrrolidin-3-yloxy]-quinolin-4-yl}-nicotinonitrile] | 426 | 3
3 | COc1ncc(-c2ccnc3ccc(O[C@H]4CCN(C(=O)C5CCS(=O)(=O)CC5)C4)cc23)cc1F [Example A4, (1,1-Dioxo-hexahydro-1lambda*6*-thiopyran-4-yl)-{(S)-3-[4-(5-fluoro-6-methoxy-pyridin-3-yl)-quinolin-6-yloxy]-pyrrolidin-1-yl}-methanone] | 128 | 3
4 | COc1ncc(-c2ccnc3ccc(O[C@H]4CCN(C(=O)c5ccc(=O)[nH]c5)C4)cc23)cc1C [Example A5, 5-{(S)-3-[4-(6-Methoxy-5-methyl-pyridin-3-yl)-quinolin-6-yloxy]-pyrrolidine-1-carbonyl}-1H-pyridin-2-one] | 231 | < 3
5 | COc1ncc(-c2ccnc3ccc(O[C@H]4CCN(C(=O)C5CCOCC5)C4)cc23)cc1C(F)(F)F [Example A7, {(S)-3-[4-(6-Methoxy-5-trifluoromethyl-pyridin-3-yl)-quinolin-6-yloxy]-pyrrolidin-1-yl}-(tetrahydro-pyran-4-yl)-methanone] | 96 | 4
6 | COc1ncc(-c2ccnc3ccc(O[C@H]4CCN(C(=O)C5CCS(=O)(=O)CC5)C4)cc23)cc1C(F)(F)F [Example A8, (1,1-Dioxo-hexahydro-1lambda*6*-thiopyran-4-yl)-{(S)-3-[4-(6-methoxy-5-trifluoromethyl-pyridin-3-yl)-quinolin-6-yloxy]-pyrrolidin-1-yl}-methanone] | 131 | 4
7 | COc1ncc(-c2ccnc3ccc(O[C@H]4CCN(C(=O)C5CCS(=O)(=O)CC5)C4)cc23)cc1CF [Example A9, (1,1-Dioxo-hexahydro-1lambda*6*-thiopyran-4-yl)-{(S)-3-[4-(5-fluoromethyl-6-methoxy-pyridin-3-yl)-quinolin-6-yloxy]-pyrrolidin-1-yl}-methanone] | 172 | 4
8 | COc1ncc(-c2ccnc3ccc(O[C@H]4CCN(C(=O)[C@@H]5CCN(C(C)=O)C5)C4)cc23)cc1C(F)(F)F [Example A11, 1-((R)-3-{(S)-3-[4-(6-Methoxy-5-trifluoromethyl-pyridin-3-yl)-quinolin-6-yloxy]-pyrrolidine-1-carbonyl}-pyrrolidin-1-yl)-ethanone] | 257 | 5
9 | COc1ncc(-c2ccnc3ccc(O[C@H]4CCN(C(=O)C5CCOC5)C4)cc23)cc1C#N (stereo partly drawn) [Example A12, 2-Methoxy-5-{6-[(S)-1-((R,S)-tetrahydro-furan-3-carbonyl)-pyrrolidin-3-yloxy]-quinolin-4-yl}-nicotinonitrile] | 305 | 5
10 | COc1ncc(-c2ccnc3ccc(O[C@H]4CCN(C(=O)C5CCOCC5)C4)cc23)cc1F [Example A13, {(S)-3-[4-(5-Fluoro-6-methoxy-pyridin-3-yl)-quinolin-6-yloxy]-pyrrolidin-1-yl}-(tetrahydro-pyran-4-yl) methanone] | 802 | 5
11 | COc1ncc(-c2ccnc3ccc(O[C@H]4CCN(C(=O)C5CCOCC5)C4)cc23)cc1C [Example A14, {(S)-3-[4-(6-Methoxy-5-methyl-pyridin-3-yl)-quinolin-6-yloxy]-pyrrolidin-1-yl}-(tetrahydro-pyran-4-yl)methanone] | 253 | 6
12 | COc1ncc(-c2ccnc3ccc(O[C@H]4CCN(C(=O)C5CCN(C(C)=O)CC5)C4)cc23)cc1C(F)(F)F [Example A16, 1-(4-{(S)-3-[4-(6-Methoxy-5-trifluoromethyl-pyridin-3-yl)-quinolin-6-yloxy]-pyrrolidine-1-carbonyl}-piperidin-1-yl) ethanone] | 207 | 7
13 | CS(=O)(=O)c1ncc(-c2ccnc3ccc(O[C@H]4CCN(C(=O)C5CCOCC5)C4)cc23)cc1C(F)F [Example A17, {(S)-3-[4-(5-Difluoromethyl-6-methanesulfonyl-pyridin-3-yl)-quinolin-6-yloxy]-pyrrolidin-1-yl}-(tetrahydro-pyran-4-yl)-methanone] | 341 | 7
14 | CCC(=O)N1CC[C@H](Oc2ccc3nccc(-c4cnc(OC)c(C#N)c4)c3c2)C1 [Example A18, 2-Methoxy-5-[6-((S)-1-propionyl-pyrrolidin-3-yloxy)-quinolin-4-yl]-nicotinonitrile] | 613 | 7
15 | COc1ncc(-c2ccnc3ccc(O[C@H]4CCN(C(=O)c5ccc(=O)[nH]c5)C4)cc23)cc1C(F)(F)F [Example A19, 5-{(S)-3-[4-(6-Methoxy-5-trifluoromethyl-pyridin-3-yl)-quinolin-6-yloxy]-pyrrolidine-1-carbonyl}-1H-pyridin-2-one] | 85 | 7
16 | CS(=O)(=O)c1ncc(-c2ccnc3ccc(O[C@H]4CCN(C(=O)C5CCOCC5)C4)cc23)cc1CF [Example A20, {(S)-3-[4-(5-Fluoromethyl-6-methanesulfonyl-pyridin-3-yl)-quinolin-6-yloxy]-pyrrolidin-1-yl}-(tetrahydropyran-4-yl)-methanone] | 543 | 7
17 | CC(=O)N1CC[C@@H](C(=O)N2CC[C@H](Oc3ccc4nccc(-c5cnc(S(C)(=O)=O)c(C)c5)c4c3)C2)C1 [Example A21, 1-((R)-3-{(S)-3-[4-(6-Methanesulfonyl-5-methyl-pyridin-3-yl)-quinolin-6-yloxy]-pyrrolidine-1-carbonyl}-pyrrolidin-1-yl)-ethanone] | 822 | 7
18 | COc1ncc(-c2ccnc3ccc(O[C@H]4CCN(C(=O)C5CCS(=O)(=O)CC5)C4)cc23)cc1C#N [Example A22, 5-{6-[(S)-1-(1,1-Dioxo-hexahydro-1lambda*6*-thiopyran-4-carbonyl)-pyrrolidin-3-yloxy]-quinolin-4-yl}-2-methoxy-nicotinonitrile] | 364 | 8
19 | Cc1cc(-c2ccnc3ccc(O[C@H]4CCN(C(=O)C5CCS(=O)(=O)CC5)C4)cc23)cnc1S(C)(=O)=O [Example A23, (1,1-Dioxo-hexahydro-1lambda*6*-thiopyran-4-yl)-{(S)-3-[4-(6-methanesulfonyl-5-methyl-pyridin-3-yl)-quinolin-6-yloxy]-pyrrolidin-1-yl}-methanone] | 1140 | 10
20 | COc1ncc(-c2ccnc3ccc(O[C@H]4CCN(C(=O)c5cn(C)cn5)C4)cc23)cc1C(F)(F)F [Example A26, {(S)-3-[4-(6-Methoxy-5-trifluoromethyl-pyridin-3-yl)-quinolin-6-yloxy]-pyrrolidin-1-yl}-(1-methyl-1H-imidazol-4-yl)-methanone] | 121 | 13
